According to PubChem BioAssay AID1259407 (Chemical Carcinogenesis Research Information System (CCRIS), 2018):
Calls of active or inactive are those of the source. The rule behind the calls is not given here.

Tested on: CCRIS mutagenicity, Ames/micronucleus/aberration tests
Assay: CCRIS mutagenicity studies
[1] = Test System: AMES SALMONELLA TYPHIMURIUM, Strain/Indicator: TA98, Metabolic Activation: NONE, Method: STANDARD PLATE
[2] = Test System: AMES SALMONELLA TYPHIMURIUM, Strain/Indicator: TA100, Metabolic Activation: NONE, Method: PREINCUBATION
[3] = Test System: AMES SALMONELLA TYPHIMURIUM, Strain/Indicator: TA102, Metabolic Activation: NONE, Method: STANDARD PLATE
[4] = Test System: AMES SALMONELLA TYPHIMURIUM, Strain/Indicator: TA1535, Metabolic Activation: NONE, Method: STANDARD PLATE
[5] = Test System: AMES SALMONELLA TYPHIMURIUM, Strain/Indicator: TA100, Metabolic Activation: NONE, Method: STANDARD PLATE
[6] = Test System: MOUSE LYMPHOMA, Strain/Indicator: L5178Y (TK+/TK-), Metabolic Activation: NONE, Method: SUSPENSION/PLATE
[7] = Test System: MOUSE LYMPHOMA, Strain/Indicator: L5178Y (TK+/TK-), Metabolic Activation: RAT, LIVER, S-9, AROCLOR 1254, Method: SUSPENSION/PLATE
[8] = Test System: AMES SALMONELLA TYPHIMURIUM, Strain/Indicator: TA98, Metabolic Activation: NONE, Method: PREINCUBATION
[9] = Test System: AMES SALMONELLA TYPHIMURIUM, Strain/Indicator: TA1535, Metabolic Activation: NONE, Method: PREINCUBATION
[10] = Test System: AMES SALMONELLA TYPHIMURIUM, Strain/Indicator: TA97, Metabolic Activation: NONE, Method: STANDARD PLATE

SMILES: CCN(CC)C(=O)/C(Cl)=C(\C)OP(=O)(OC)OC
- mutagenic call (End Point: IN VITRO CHROMOSOMAL ABERRATIONS, Test System: HUMAN PERIPHERAL BLOOD LYMPHOCYTES, Metabolic Activation: NONE): active; positive (structural changes)
- mutagenic call (Test System: AMES SALMONELLA TYPHIMURIUM, Strain/Indicator: G46, Metabolic Activation: HOST-MEDIATED, Method: STANDARD PLATE): active; positive
- mutagenic call (Test System: AMES SALMONELLA TYPHIMURIUM, Strain/Indicator: TA97A, Metabolic Activation: NONE, Method: STANDARD PLATE): inactive; negative
- mutagenic call (Test System: AMES SALMONELLA TYPHIMURIUM, Strain/Indicator: TA97A, Metabolic Activation: PLANT, HOMOGENATE, S-14, Method: STANDARD PLATE): inactive; negative
- mutagenic call (Test System: AMES SALMONELLA TYPHIMURIUM, Strain/Indicator: TA97A, Metabolic Activation: S-9, Method: STANDARD PLATE): inactive; negative
- mutagenic call [1]: inactive; negative
- mutagenic call (Test System: AMES SALMONELLA TYPHIMURIUM, Strain/Indicator: TA98, Metabolic Activation: PLANT, HOMOGENATE, S-14, Method: STANDARD PLATE): inactive; negative
- mutagenic call (Test System: AMES SALMONELLA TYPHIMURIUM, Strain/Indicator: TA98, Metabolic Activation: S-9, Method: STANDARD PLATE): inactive; negative
- mutagenic call [2]: active; positive
- mutagenic call (Test System: AMES SALMONELLA TYPHIMURIUM, Strain/Indicator: TA100, Metabolic Activation: PLANT, HOMOGENATE, S-14, Method: STANDARD PLATE): inactive; negative
- mutagenic call (Test System: AMES SALMONELLA TYPHIMURIUM, Strain/Indicator: TA100, Metabolic Activation: S-9, Method: STANDARD PLATE): inactive; negative
- mutagenic call [3]: inactive; negative
- mutagenic call (Test System: AMES SALMONELLA TYPHIMURIUM, Strain/Indicator: TA104, Metabolic Activation: NONE, Method: STANDARD PLATE): inactive; negative
- mutagenic call [4]: inactive; negative
- mutagenic call (Test System: AMES SALMONELLA TYPHIMURIUM, Strain/Indicator: TA1535, Metabolic Activation: PLANT, HOMOGENATE, S-14, Method: STANDARD PLATE): inactive; negative
- mutagenic call (Test System: AMES SALMONELLA TYPHIMURIUM, Strain/Indicator: TA1535, Metabolic Activation: S-9, Method: STANDARD PLATE): inactive; negative

SMILES: O=C1CCO1
- mutagenic call [5]: active; positive
- mutagenic call (Test System: AMES SALMONELLA TYPHIMURIUM, Strain/Indicator: TA100, Metabolic Activation: RAT, LIVER, S-9, KC500 OR PHENOBARBITAL, Method: LIQUID SUSPENSION): active; positive
- mutagenic call [4]: active; positive
- mutagenic call (Test System: CHINESE HAMSTER V-79, Strain/Indicator: V-79/6-THIOGUANINE, Metabolic Activation: NONE, Method: FLASK ASSAY): active; positive
- mutagenic call [6]: active; positive
- mutagenic call [7]: active; positive
- mutagenic call (Test System: UDS HUMAN FIBROBLASTS, Strain/Indicator: THY INCORP (NON-S-PHASE), Metabolic Activation: NONE, Method: LIQUID SCINTILLATION COUNTING): active; positive
- mutagenic call (Test System: UDS HUMAN LYMPHOCYTES, Strain/Indicator: THY INCORP (NON-S-PHASE), Metabolic Activation: NONE, Method: LIQUID SCINTILLATION COUNTING): active; positive
- mutagenic call (Test System: UDS RODENT PRIMARY CELLS, Strain/Indicator: THY INCORP (NON-S-PHASE), Metabolic Activation: NONE, Method: AUTORADIOGRAPHY): active; positive

SMILES: O=C([O-])c1ccc2ccccc2c1.O=C([O-])c1ccc2ccccc2c1.[Pb+2]
- mutagenic call [6]: active; positive. reevaluation of results: equivocal

SMILES: O=c1cccccc1O
- mutagenic call [6]: active; positive. reevaluation of results: positive
- mutagenic call [7]: inactive; positive. reevaluation of results: negative

SMILES: COc1ccc([C@H]2O[C@H]2C)cc1
- mutagenic call [8]: inactive; negative
- mutagenic call [2]: active; positive
- mutagenic call [9]: active; positive

SMILES: O=c1cc(-c2ccccc2)cc(-c2ccccc2)n1/N=C/c1ccc([N+](=O)[O-])o1
- mutagenic call [10]: inactive; negative
- mutagenic call [1]: inactive; negative
- mutagenic call [5]: active; positive
- mutagenic call [3]: inactive; negative

SMILES: C=C(C)C(=O)OCC(Br)CBr (centres undefined)
- mutagenic call (Test System: AMES SALMONELLA TYPHIMURIUM, Strain/Indicator: TA98, Metabolic Activation: HAMSTER, LIVER, S-9, AROCLOR 1254 (10%), Method: PREINCUBATION): active; positive
- mutagenic call [8]: inactive; negative
- mutagenic call (Test System: AMES SALMONELLA TYPHIMURIUM, Strain/Indicator: TA98, Metabolic Activation: RAT, LIVER, S-9, AROCLOR 1254 (10%), Method: PREINCUBATION): inactive; negative
- mutagenic call (Test System: AMES SALMONELLA TYPHIMURIUM, Strain/Indicator: TA100, Metabolic Activation: HAMSTER, LIVER, S-9, AROCLOR 1254 (10%), Method: PREINCUBATION): active; positive
- mutagenic call [2]: inactive; negative
- mutagenic call (Test System: AMES SALMONELLA TYPHIMURIUM, Strain/Indicator: TA100, Metabolic Activation: RAT, LIVER, S-9, AROCLOR 1254 (10%), Method: PREINCUBATION): active; positive
- mutagenic call (Test System: AMES SALMONELLA TYPHIMURIUM, Strain/Indicator: TA1535, Metabolic Activation: HAMSTER, LIVER, S-9, AROCLOR 1254 (10%), Method: PREINCUBATION): active; positive
- mutagenic call [9]: inactive; negative
- mutagenic call (Test System: AMES SALMONELLA TYPHIMURIUM, Strain/Indicator: TA1535, Metabolic Activation: RAT, LIVER, S-9, AROCLOR 1254 (10%), Method: PREINCUBATION): active; positive
- mutagenic call (Test System: AMES SALMONELLA TYPHIMURIUM, Strain/Indicator: TA1537, Metabolic Activation: HAMSTER, LIVER, S-9, AROCLOR 1254 (10%), Method: PREINCUBATION): inactive; negative
- mutagenic call (Test System: AMES SALMONELLA TYPHIMURIUM, Strain/Indicator: TA1537, Metabolic Activation: NONE, Method: PREINCUBATION): inactive; negative
- mutagenic call (Test System: AMES SALMONELLA TYPHIMURIUM, Strain/Indicator: TA1537, Metabolic Activation: RAT, LIVER, S-9, AROCLOR 1254 (10%), Method: PREINCUBATION): inactive; negative

SMILES: CC1C(C)(C)C2=C(C(=O)CCC2)C1(C)C (centres undefined)
- mutagenic call [10]: inactive; negative
- mutagenic call (Test System: AMES SALMONELLA TYPHIMURIUM, Strain/Indicator: TA97, Metabolic Activation: RAT LIVER S-9, AROCLOR 1254, Method: STANDARD PLATE): inactive; negative
- mutagenic call [1]: inactive; negative
- mutagenic call (Test System: AMES SALMONELLA TYPHIMURIUM, Strain/Indicator: TA98, Metabolic Activation: RAT LIVER S-9, AROCLOR 1254, Method: STANDARD PLATE): inactive; negative
- mutagenic call [5]: inactive; negative
- mutagenic call (Test System: AMES SALMONELLA TYPHIMURIUM, Strain/Indicator: TA100, Metabolic Activation: RAT LIVER S-9, AROCLOR 1254, Method: STANDARD PLATE): inactive; negative
- mutagenic call [3]: inactive; negative
- mutagenic call (Test System: AMES SALMONELLA TYPHIMURIUM, Strain/Indicator: TA102, Metabolic Activation: RAT LIVER S-9, AROCLOR 1254, Method: STANDARD PLATE): inactive; negative

SMILES: OC[C@H](Cc1cccc(O)c1)[C@H](CO)Cc1cccc(O)c1
- mutagenic call (Test System: CHINESE HAMSTER V79 CELLS, Strain/Indicator: V79 CELLS (HPRT)/6-THIOGUANINE, Metabolic Activation: NONE, Method: SUSPENSION/PLATE): inactive; negative
- mutagenic call (Test System: CHINESE HAMSTER V-79, Strain/Indicator: V-79 (HPRT)/6-THIOGUANINE, Metabolic Activation: NONE): inactive; negative

SMILES: O=[N+]([O-])c1cc([N+](=O)[O-])c2c3c(c4cccc5ccc1c2c54)CCCC3
- mutagenic call [1]: active; positive
- mutagenic call (Test System: AMES SALMONELLA TYPHIMURIUM, Strain/Indicator: TA98, Metabolic Activation: RAT, LIVER, S-9, AROCLOR 1254, Method: STANDARD PLATE): active; positive
